Data as given in patent US7514432B2, “Compounds and methods of treating cell proliferative diseases, retinopathies and arthritis” (Exonhit Therapeutics SA, priority 2003, dated 2009).

Experiments:
[1] = system: REF cells; assay: Wound healing assay (time-lapse microscopy); type: cell-based; conditions: time lapse 8 hours
Method: FIG. 4: Migration assays. (A) Wound healing assay in REF cells. 7.6 10^4 cells were plated on coverslips 48 hours before the experiment. The cells were pre-treated for 30 min. with the compounds, and then a scrape was done using a pipette tip. The scraped coverslips in treatment medium were put under a thermostated microscope coupled to a video camera. Movies were analyzed as described in material and methods, and velocity and total distance covered by the cells were evaluated. Bar graphs represent the mean±SEM of 2 to 4 experiments. (B) Boyden chamber migration assay in HMEC1, NIH3T3 and MDA-MB-231 cells. […] After labeling, cells were washed with HBSS and fluorescence was read in a fluorescence plate reader. Fluorescence values were normalized against the fluorescence obtained for the 1% DMSO control. […]
This assay has been described by Nobes & Hall (J. Cell Biol., 1999). • Preparation of REF cells: REF cells are prepared from 15-18 E14 embryos. […] Only the torso is kept, sliced into small squares, washed, treated with trypsin-EDTA for 20 min. at 37° C., resuspended in medium, counted and plated. […] Microscope images were collected every 5 minutes and recorded using the OpenLab software. When the assay is terminated (after 4 to 24 hours), pictures and movies are analyzed using the Metamorphe software. […] The position of each point was recorded. […]

[2] = system: quiescent Swiss 3T3 cells; assay: Compounds' effect on the actin cytoskeleton (Rac-induced ruffles); type: cell-based; conditions: 30 min pre-treatment, subtoxic doses; osmotic shock 10 min (50% H2O)
Method: FIG. 1: Study of compounds effect on the actin cytoskeleton. Quiescent Swiss 3T3 cells were treated for 30 minutes with various concentrations of the compounds and were then submitted to osmotic shock by 10 min. incubation in a medium containing 50% H2O. Cells were subsequently fixed, permeabilized and labeled with Phalloidin TRITC. 100 to 200 cells were counted under a microscope, and the percentage of cells displaying lamellipodia and ruffles was evaluated.
Quiescence of Swiss 3T3 cells: Cells are seeded at high density on coverslips in 5% FCS medium (special weak FCS). When cells become quiescent (after 6-10 days of culture), the medium is removed (a few microliters remaining in the well) and replaced with serum free medium. Cells are placed in the incubator overnight. […]
Immunofluorescence • Fixation and permeabilization: Medium is aspirated from the culture wells and replaced with fixation buffer (BRB80: 80 mM KPipes pH 6.8, 2 mM MgCl2, 5 mM EGTA, 0.3% paraformaldehyde). […] Mounting is allowed to dry at 37° C. for 1 h. • Quantification of the effect of the compounds: The total number of cells is counted under the microscope (at least three different fields, e.g. between 100 and 200 cells). The number of cells bearing the morphological features of interest is evaluated. The percentage of cells bearing the morphological features of interest is then calculated.

Row | SMILES | decrease of migration of REF cells (velocity and total distance covered) ([1]; 30 μM) | formation of ruffles induced by Rac after osmotic shock [2] | decrease of migration of REF cells (velocity and total distance covered) ([1]; 10 μM)
1 | Cl.Cl.O=c1cc(CN2CCOCC2)occ1OCCCCCSc1ccnc2cc(C(F)(F)F)ccc12 [EHT 1864, 5-(5-(7-(Trifluoromethyl)quinolin-4-ylthio)pentyloxy)-2-(morpholinomethyl)-4H-pyran-4-one dihydrochloride] | about 48% | dose-dependently prevents formation of ruffles | –
2 | CN1CCN(Cc2cc(=O)c(OCCCCCSc3ccnc4cc(C(F)(F)F)ccc34)co2)CC1.Cl.Cl.Cl [EHT 9241, 5-(5-(7-(Trifluoromethyl)quinolin-4-ylthio)pentyloxy)-2-((4-methylpiperazin-1-yl)methyl)-4H-pyran-4-one trihydrochloride] | – | dose-dependently prevents formation of ruffles | 36%
